Source: PMC5441875 (eLife, 2017)
Several values for one entry are separate records, joined by “and”; a condition that tells them apart may be missing. Equal entries are not always repeated. Where two headings read alike, the source gives them in different places.

Legend:
[1] = target: T1, WT GluN1/GluN2A receptors (Rattus norvegicus, UniProt P35439+Q00959); assay: Magnesium dose-response curves (Mg2+-DRCs), whole-cell patch-clamp; assay type: cell-based; parameters: expressed in transfected cells; host or cells: HEK-293 cells (ATCC), PEI transfection, pcDNA3-based vectors
T1 sequence (Q00959 23-1464, other chains not shown): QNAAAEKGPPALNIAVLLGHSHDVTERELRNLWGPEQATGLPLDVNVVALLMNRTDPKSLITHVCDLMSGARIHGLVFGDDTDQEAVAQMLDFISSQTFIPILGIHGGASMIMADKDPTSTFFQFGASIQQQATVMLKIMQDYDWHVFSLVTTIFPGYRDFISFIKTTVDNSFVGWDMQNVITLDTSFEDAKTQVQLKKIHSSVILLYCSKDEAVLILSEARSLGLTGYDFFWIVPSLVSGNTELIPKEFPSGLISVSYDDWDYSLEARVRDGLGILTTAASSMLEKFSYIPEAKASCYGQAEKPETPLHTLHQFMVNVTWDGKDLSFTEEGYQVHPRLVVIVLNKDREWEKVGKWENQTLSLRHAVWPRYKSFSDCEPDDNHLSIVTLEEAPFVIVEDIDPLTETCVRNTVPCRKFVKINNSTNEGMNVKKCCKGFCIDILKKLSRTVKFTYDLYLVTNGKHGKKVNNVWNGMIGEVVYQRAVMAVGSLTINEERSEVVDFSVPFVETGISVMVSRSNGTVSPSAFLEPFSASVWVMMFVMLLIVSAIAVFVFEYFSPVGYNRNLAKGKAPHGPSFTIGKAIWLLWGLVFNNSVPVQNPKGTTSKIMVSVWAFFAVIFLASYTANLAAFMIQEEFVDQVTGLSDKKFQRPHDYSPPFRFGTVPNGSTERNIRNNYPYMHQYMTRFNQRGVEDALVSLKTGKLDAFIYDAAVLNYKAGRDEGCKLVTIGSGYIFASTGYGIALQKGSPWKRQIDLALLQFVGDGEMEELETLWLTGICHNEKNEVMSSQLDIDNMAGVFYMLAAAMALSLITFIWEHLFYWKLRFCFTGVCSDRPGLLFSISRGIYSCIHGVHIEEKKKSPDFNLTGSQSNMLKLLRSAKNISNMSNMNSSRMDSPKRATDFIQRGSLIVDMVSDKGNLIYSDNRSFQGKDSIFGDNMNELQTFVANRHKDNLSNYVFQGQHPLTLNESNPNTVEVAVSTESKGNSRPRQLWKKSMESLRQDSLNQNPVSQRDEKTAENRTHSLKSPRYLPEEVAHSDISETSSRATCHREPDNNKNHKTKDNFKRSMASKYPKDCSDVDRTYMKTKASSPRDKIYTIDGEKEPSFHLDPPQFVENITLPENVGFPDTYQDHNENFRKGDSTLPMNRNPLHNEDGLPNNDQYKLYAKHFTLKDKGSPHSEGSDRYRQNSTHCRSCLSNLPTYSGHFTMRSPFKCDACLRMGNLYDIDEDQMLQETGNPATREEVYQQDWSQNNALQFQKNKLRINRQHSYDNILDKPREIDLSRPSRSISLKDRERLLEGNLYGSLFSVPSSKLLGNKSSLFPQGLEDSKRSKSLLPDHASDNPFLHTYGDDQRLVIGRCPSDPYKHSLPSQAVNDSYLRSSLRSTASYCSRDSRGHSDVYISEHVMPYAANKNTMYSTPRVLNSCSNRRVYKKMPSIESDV
Experimental: (§1) Receptor functionality and light-sensitivity were assessed in patch-clamp recordings of lifted whole cells 24–72 hr post transfection. Positively transfected cells were visualized by GFP-fluorescence. […] The osmolarity was 270–290 mOsm. The cells were continuously perfused with a Ringer solution containing (in mM): 140 NaCl, 2.8 KCl, 1 CaCl2, 0.01 DTPA, 10 HEPES and five sucrose (pH 7.3 with NaOH). The osmolarity was 290 mOsm. DTPA was added to prevent tonic inhibition of NMDARs by ambient zinc ([Paoletti et al., 1997]). Currents were recorded using an Axopatch 200B amplifier and a Digidata 1550A interface (Molecular Devices), sampled at 10–20 kHz, and low-pass filtered at 2–5 kHz. The cells were voltage-clamped at −60 mV. pClamp 10.5 (Molecular Devices) was used to acquire the data. All recordings were performed at room temperature.
(§2) Agonists or other pharmacological substances were applied using a multi-barrel rapid solution exchanger system (RSC 200, Bio-Logic). […] The agonist deactivation kinetics were assessed by including the converse co-agonist to the control solution. For Mg^2+-DRCs, the concentration of DTPA, which has orders of magnitude higher affinity for Zn^2+ than Mg^2+ ([Paoletti et al., 1997]), was reduced to 1 µM to avoid excessive Mg^2+ chelation, while maintaining depletion of ambient zinc (estimated in the few hundreds of nM). Accordingly, Mg^2+ concentrations reported in the Mg^2+-DRC were not corrected and correspond to the nominal concentrations of added Mg^2+. MK-801 was applied at 1 μM to assure full inhibition of WT NMDAR-mediated currents. The positive allosteric modulator (PAM) GNE-6901 (obtained from Genentech, South San Francisco, USA) was used at a final concentration of 30 μM ([Hackos et al., 2016]).
(§3) Computer-controlled light pulses during electrophysiological recordings were provided from sensitive high power LEDs (Prizmatix). […] The LED port was directly coupled via a microscope adaptor to the fluorescence port of an inverted DIAPHOT 300 Nikon microscope. […]

[2] = test system: GluN1-F654PSAA/GluN2A receptors; assay: as above; assay type: cell-based, rat; conditions: F654PSAA mutant
Experimental: as §1, §2
(§4) Computer-controlled light pulses during electrophysiological recordings were provided from sensitive high power LEDs (Prizmatix). The three following LEDs were used: Mic-LED-365 (UV, 200 mW), UHP-Mic-LED-460 (blue, 2W) and UHP-Mic-LED-520 (green, 900 mW). The LED port was directly coupled via a microscope adaptor to the fluorescence port of an inverted DIAPHOT 300 Nikon microscope. The output beams of the three Mic-LEDs were joined by a dichroic beam combiner module and the resulting light was applied to the center of the recording dish through a 10X objective (Leitz Wetzlar). The light intensity of all three LEDs was set to 100%, unless otherwise noted.
(§5) Current traces obtained in electrophysiological recordings were transferred to Igor Pro (version 6.3) or Clampfit (version 10.5) for display and analysis. The kinetics of photoinactivation and photopotentiation were obtained by fitting currents with a single exponential function as follows: Y = A*exp(-t/τ) + C, with A as the initial current amplitude, Tau (τ) the decay time constant, and C the steady-state level. The inhibition by MK-801 was also fit with a monoexponential function. […] Accordingly, and for comparative purposes, only single exponential fits were used when studying MK-801 inhibition. Agonist DRCs were fit with the following Hill equation: Irel = 1/(1 + (EC50 / [ago])^nH), with EC50 and the Hill coefficient (nH) as free parameters. For Mg^2+-DRCs the following equation was used: Irel = 100*(1-(a/(1+[IC50]/[Mg^2+)^nH,)), where a is the maximal current inhibition by Mg^2+. IC50, a, and the Hill coefficient (nH) were set as free parameters.

[3] = test system: GluN1-Y647PSAA/GluN2A receptors; assay: as above; assay type: cell-based, rat; conditions: Y647PSAA mutant
Experimental: as §1, §2, §4, §5

[4] = test system: GluN1-P532PSAA/GluN2A receptors; assay: UV-induced photoinhibition of currents in the presence of ligands (glycine concentrations, competitive antagonists, PAM); assay type: cell-based, rat
Experimental: as §1, §2, §4

[5] = test system: GluN1-P532PSAA/GluN2A receptors; conditions: PSAA-mutant; for τdeact,UV (example trace) / τdeact,BLUE (example trace): single example trace; for τdeact,BLUE (example trace): blue light
Experimental: as §1, §2, §4
The weighted deactivation time constants were calculated with: τw =( Af/(Af+As))*τf + (As /(Af + As))*τs.

[6] = target: GluN1-P532PSAA/GluN2A receptors; conditions: PSAA-mutant
Experimental: as §1, §2
Computer-controlled light pulses during electrophysiological recordings were provided from sensitive high power LEDs (Prizmatix).

[7] = UV/Vis spectra of the free PSAA photoisomers; assay type: physicochemical; conditions: isopropanol, 5 min irradiation at 460 nm
Experimental: The UV/Vis spectra of the free PSAA (100 μM) were measured using a UVIKON 922 spectrophotometer (Kontron Instruments) in 1 x 1 × 4 cm quartz cuvettes. The spectra were measured at two different conditions: (i) with PSAA in the extracellular (Ringer) solution to be as close as possible to the recording conditions, and (ii) in isopropanol to mimic a hydrophobic environment (since PSAA is buried in the protein) ([Ye et al., 2009]). To induce the different photoisomers, the dissolved PSAA was directly irradiated in the cuvette at 365 nm (30 mW), 460 nm (241 mW), and 525 nm (35 mW) using a Cool LED pE-4000 illumination system. The UV spectra of the pure trans-isomer were recorded upon storage in the dark.

[8] = test system: GluN1-F654PSAA/GluN2A receptors; assay: MK-801 open channel block (kinetics and extent), whole-cell patch-clamp; assay type: cell-based, rat
Experimental: as §1, §2, §4, §5

[9] = test system: GluN1-Y647PSAA/GluN2A receptors; assay: as above; assay type: cell-based, rat; conditions: 1 µM MK-801, Y647PSAA mutant
Experimental: as §1, §2, §4, §5

[10] = target: T1, WT GluN1/GluN2A receptors; assay: as above; assay type: cell-based; parameters: expressed in transfected cells; host or cells: HEK-293 cells (ATCC), PEI transfection, pcDNA3-based vectors; conditions: 1 µM MK-801, WT
Experimental: as §1, §2, §4, §5

[11] = test system: GluN1-P532PSAA/GluN2A receptors; assay: MK-801 open channel block kinetics, whole-cell patch-clamp; assay type: cell-based, rat
Experimental: as §1, §2, §4, §5

[12] = test system: GluN1-P532PSAA/GluN2A receptors; assay: Potentiation by the positive allosteric modulator GNE-6901, whole-cell patch-clamp; assay type: cell-based, rat
Experimental: as §1
Agonists or other pharmacological substances were applied using a multi-barrel rapid solution exchanger system (RSC 200, Bio-Logic). […] The agonist deactivation kinetics were assessed by including the converse co-agonist to the control solution. […]
as §3

[13] = target: T1, WT GluN1/GluN2A receptors; assay: as above; assay type: cell-based; parameters: expressed in transfected cells; host or cells: HEK-293 cells (ATCC), PEI transfection, pcDNA3-based vectors
Experimental: as §1, §2, §3

[14] = blue light, read-out: IC50 BLUE
[15] = read-out: EC50,BLUE, blue light (460 nm)
[16] = read-out: EC50,DARK, dark, 100 μM of the respective co-agonist
[17] = read-out: EC50,UV, UV light (365 nm)
[18] = 1 µM MK-801, F654PSAA mutant, UV
[19] = 1 µM MK-801, F654PSAA mutant, dark

## [Mg+2] [Mg^2+]
[1]; UV light, read-out: IC50 UV
  IC50: 35.8 µM
[1]; [14]
  IC50: 32.6 µM
[1]; dark, nominal Mg2+ concentrations, read-out: IC50 DARK
  IC50: 34.6 µM
[2]; UV light, read-out: IC50 UV
  IC50: 33.3 µM
[2]; [14]
  IC50: 34.3 µM
[2]; dark, read-out: IC50 DARK
  IC50: 30 µM
[3]; UV light, read-out: IC50,UV
  IC50: 41.5 µM
[3]; blue light, read-out: IC50,BLUE
  IC50: 102 µM
[3]; dark or blue vs UV
  fold increase in IC50 under dark or blue light: 2.5 fold
[3]; dark, read-out: IC50,DARK
  IC50: 103 µM

## NCC(=O)O [glycine]
[4]; 1 μM glycine
  mean photoinhibition degree Inh1: ~95%
[4]; 10 μM glycine
  mean photoinhibition degree Inh10: 76.1 ± 2%
[4]; 100 μM glycine
  mean photoinhibition degree Inh100: 49.9 ± 2.5%
[4]; 1000 μM glycine
  mean photoinhibition degree Inh1000: 33.5 ± 2%
[5]; UV
  mean weighted deactivation time constant τdeact,UV: 81 ± 4 ms
  τdeact,UV (example trace): 75.4 ms
[5]
  τdeact,BLUE (example trace): 131.3 ms
  mean weighted deactivation time constant τdeact,DARK: 111 ± 9 ms
[6]; [15]
  EC50: 1.5 µM
[6]; [16]
  EC50: 1.5 µM
[6]; [17]
  EC50: 10.5 µM

## C=Cc1cccc(/N=N/c2ccc(C[C@H](N)C(=O)O)cc2)c1 [PSAA]
[7]
  cis/trans ratio: 74%

## N[C@@H](CCC(=O)O)C(=O)O [glutamate]
[5]; UV
  τdeact,UV (example trace): 77.7 ms
[5]
  τdeact,BLUE (example trace): 79.2 ms
  mean weighted deactivation time constant τdeact,DARK: 113 ± 36 ms
[6]; [15]
  EC50: 13.3 µM
[6]; [16]
  EC50: 14.6 µM
[6]; [17]
  EC50: 17.1 µM

## C[C@]12N[C@H](Cc3ccccc31)c1ccccc12 [MK-801]
[8]; [18]
  mean extent of block produced by MK-801, BlockUV: 97 ± 1%
  time constant of MK-801 inhibition (example trace): 1000 ms
[8]; 1 µM MK-801, F654PSAA mutant, UV, mean
  single-exponential time constant of MK-801 inhibition τUV: 730 ± 70 ms
[8]; [19]
  mean extent of block produced by MK-801, BlockDARK: 90 ± 3%
  time constant of MK-801 inhibition (example trace): 3970 ms
[8]; 1 µM MK-801, F654PSAA mutant, dark, mean
  single-exponential time constant of MK-801 inhibition τDARK: 3070 ± 560 ms
[8]; F654PSAA receptors, across light conditions
  degree of MK-801 block: ≥ 90%
[9]; UV
  mean extent of block produced by MK-801, BlockUV: 86 ± 3% and > 85%
  time constant of MK-801 inhibition (example trace): 3300 ms
[9]; UV, mean
  single-exponential time constant of MK-801 inhibition τUV: 4150 ± 910 ms
[9]; dark (trans)
  mean extent of block produced by MK-801, BlockDARK: 69 ± 5% and 69%
[9]; dark
  time constant of MK-801 inhibition (example trace): 4400 ms
[9]; dark, mean
  single-exponential time constant of MK-801 inhibition τDARK: 5070 ± 580 ms
[10]; UV
  mean extent of block produced by MK-801, BlockUV: 98 ± 1%
  time constant of MK-801 inhibition (example trace): 700 ms
[10]; UV, mean
  single-exponential time constant of MK-801 inhibition τUV: 620 ± 50 ms
[10]; blue, mean
  single-exponential time constant of MK-801 inhibition τBLUE: 610 ± 90 ms
[10]; dark
  mean extent of block produced by MK-801, BlockDARK: 97 ± 1%
  time constant of MK-801 inhibition (example trace): 600 ms
[10]; dark, mean
  single-exponential time constant of MK-801 inhibition τDARK: 690 ± 140 ms
[11]; 1 µM MK-801, P532PSAA mutant, UV, example
  time constant of MK-801 inhibition τUV (example trace): 3200 ms
[11]; 1 µM MK-801, P532PSAA mutant, UV, mean
  single-exponential time constant of MK-801 inhibition τUV: 1820 ± 290 ms
[11]; 1 µM MK-801, P532PSAA mutant, dark, example
  time constant of MK-801 inhibition τDARK (example trace): 470 ms
[11]; 1 µM MK-801, P532PSAA mutant, dark, mean
  single-exponential time constant of MK-801 inhibition τDARK: 940 ± 160 ms
[11]; P532PSAA mutant in dark state vs WT
  fold slower MK-801 blocking kinetics: ~ 1.3 fold
[11]; P532PSAA mutant under UV exposure
  fold slower MK-801 inhibition rates: ~ 2 fold

## Cc1sc2nc(COc3ccc(F)cc3)cc(=O)n2c1[C@@H]1C[C@H]1CO [GNE-6901]
[12]; GNE-6901 30 µM, PSAA mutant, cis and trans pooled
  mean fold-potentiation by PAM: 0.9 ± 0.04 fold
[12]; GluN1-P532PSAA mutant receptors
  effect of PAM application: entirely unaffected
[13]; GNE-6901 30 µM, WT
  mean fold-potentiation by PAM: 2.3 ± 0.3 fold
[13]; GNE-6901 30 µM, WT, example trace
  fold potentiation (example trace): 2.3 fold
[13]; WT receptors
  effect of PAM application: strongly potentiated
